Experimental data as given in patent US12558342B2, “2-[2-({12,12-dimethyl-4-oxo-6-phenyl-3,11-dioxatricyclo[8.4.0.0,2,7]tetradeca-1,5,7,9-tetraen-8-yl}oxy)acetamido]benzamide and derivatives as inhibitor of clock:bmal1 interaction for the treatment of circadian rhythm diseases and disorders” (KOC UNIVERSITESI, priority 2019, dated 2026).

Tests used:
[1] = system: Bmal1::dluc U2OS cells; experiment: Real-time monitoring of circadian rhythm, Bmal1::dluc U2OS; format: cell-based, human
Procedure: We used Bmal1::dluc U2-OS and Per1::dluc NIH 3T3, and continuously monitored the bioluminescence to record circadian rhythm. This experiment was performed in 96-well plates (triplicates) and 35-mm dishes (duplicates) in the secondary screen and detailed characterization steps respectively. Briefly, cells were seeded to reach confluency. A day after, the medium was replaced with DMEM containing 0.1 μM Dexamethasone to synchronize cells. Two hour later, 0.1 mM of Luciferin was freshly added to the recording medium (low glucose DMEM powder (with L-glutamine) supplemented with 10 mM HEPES, […] sodium bicarbonate, 3.5 mg/ml D-(+)-glucose powder, 5% FBS, 0.1 mM NEAA, 100 U/ml penicillin and […]). Then, the medium was replaced with recording medium containing appropriate amount of each compound. Control cells were treated with 0.5% vehicle (DMSO). For a detailed characterization of CLK8, whenever required, and without any further medium change, small molecule treatment was postponed to two days after bioluminescence recording started. The 96-well plates were covered and bioluminescence was monitored by Synergy H1 Hybrid Multi-Mode Reader every 32 minutes. Similarly, we sealed the 35-mm plates with vacuum grease prior to mounting them on a LumiCycle luminometer (Actimetrics). Bioluminescence was recorded every 10 minutes for 4-6 days. Raw data (counts/sec) were plotted against time. The period and amplitude parameters were obtained using LumiCycle Analysis software (Actimetrics). First, the raw data was baseline fitted (n=1), and then the baseline-subtracted data was fitted to a sine wave (damped). The first day's data was excluded from the analysis due to transient perturbations of luminescence after the medium change.
We used Bmal1::dluc U2-OS and Per1::dluc NIH 3T3, and continuously monitored the bioluminescence to record circadian rhythm. This experiment was performed in 96-well plates (triplicates) and 35-mm dishes (duplicates) in the secondary screen and detailed characterization steps respectively. Briefly, cells were seeded to reach confluency. A day after, the medium was replaced with DMEM containing 0.1 μM Dexamethasone to synchronize cells. Two hour later, 0.1 mM of Luciferin was freshly added to the recording medium (low glucose DMEM powder (with L-glutamine) supplemented with 10 mM HEPES, 0.35 mg/ml sodium bicarbonate, 3.5 mg/ml D-(+)-glucose powder, 5% FBS, 0.1 mM NEAA, 100 U/ml penicillin and […]). […] The 96-well plates were covered and bioluminescence was monitored by Synergy H1 Hybrid Multi-Mode Reader every 32 minutes. […] Bioluminescence was recorded every 10 minutes for 4-6 days. […] The first day's data was excluded from the analysis due to transient perturbations of luminescence after the medium change.

[2] = target: T1, CLOCK-F80A-K220A (Homo sapiens, UniProt O15516, F80A/K220A); experiment: Pull-down assay with biotinylated CLK8, HEK 293T cells overexpressing CLOCK-F80A-K220A and BMAL1; format: binding
T1 construct: expressed in transfected cells; host or cells: HEK 293T
T1 sequence (O15516 1-846 F80A/K220A): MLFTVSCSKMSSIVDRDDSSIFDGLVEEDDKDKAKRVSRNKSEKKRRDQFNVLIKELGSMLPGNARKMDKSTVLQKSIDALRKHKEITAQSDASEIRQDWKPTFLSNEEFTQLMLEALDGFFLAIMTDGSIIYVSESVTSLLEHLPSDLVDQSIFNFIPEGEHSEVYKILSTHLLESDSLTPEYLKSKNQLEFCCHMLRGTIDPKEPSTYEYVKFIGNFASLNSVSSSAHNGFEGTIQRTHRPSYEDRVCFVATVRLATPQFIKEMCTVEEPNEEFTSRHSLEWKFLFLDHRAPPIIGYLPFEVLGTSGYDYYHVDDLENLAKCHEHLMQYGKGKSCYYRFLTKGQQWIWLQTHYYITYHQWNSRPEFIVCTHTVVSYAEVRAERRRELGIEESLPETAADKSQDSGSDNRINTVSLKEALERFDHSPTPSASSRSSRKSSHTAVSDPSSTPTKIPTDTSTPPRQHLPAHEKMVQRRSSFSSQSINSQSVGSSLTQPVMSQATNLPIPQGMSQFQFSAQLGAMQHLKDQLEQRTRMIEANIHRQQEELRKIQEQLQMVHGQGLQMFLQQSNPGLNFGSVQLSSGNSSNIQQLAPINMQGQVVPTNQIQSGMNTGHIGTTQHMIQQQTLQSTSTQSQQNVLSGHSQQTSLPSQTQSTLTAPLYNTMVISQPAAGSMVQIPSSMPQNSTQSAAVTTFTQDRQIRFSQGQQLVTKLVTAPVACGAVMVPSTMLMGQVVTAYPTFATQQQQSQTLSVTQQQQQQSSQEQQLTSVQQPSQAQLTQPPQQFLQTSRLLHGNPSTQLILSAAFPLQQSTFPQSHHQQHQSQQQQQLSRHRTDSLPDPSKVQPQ
Procedure: HEK293T cells were transiently transfected with tag-free hsClock and mBmal1. After 48 hours of transfection, cells were harvested and whole cell lysate was prepared with ice-cold lysis buffer (50 mM Tris-HCl pH 7.4, 2 mM EDTA, 1 mM MgCl2, 0.2% NP-40, 1 mM sodium orthovanadate, 1 mM sodium fluoride and protease inhibitor cocktail) followed by centrifugation at 7000×g at 4° C. for 10 minutes. Lysate was diluted with ice-cold 2× binding buffer (100 mM Tris-HCl pH 7.4, 300 mM NaCl, 0.2% NP-40, 2 mM sodium orthovanadate, 2 mM sodium fluoride, and protease inhibitor cocktail) 27. The lysate was divided into three fractions to be treated with either DMSO, or 20 μM of bitoinylated-CLK8 (bait) with or without 200 μM CLK8 (competitor). The lysate-compound samples were incubated and mixed continuously at 4° C. for 1 hour. After equilibrating NeutroAvidin Agarose resin (Thermo Scientific) with lysis buffer, the lysate-compound mixture and NeutroAvidin Agarose resin were incubated and mixed continuously at 4° C. overnight. The beads were washed four times with 1× binding buffer. To elute the bound proteins Laemmli buffer was added and samples were heated at 95° C. for 7 minutes. The pull-down precipitates were subjected to SDS-PAGE and transferred to a PVDF membrane (Millipore). […]

**Q.** With `CC1(C)CCc2c(cc(OCC(=O)Nc3ccccc3C(N)=O)c3c(-c4ccccc4)cc(=O)oc23)O1` [CLK8, 2-[2-({12,12-dimethyl-4-oxo-6-phenyl-3,11-dioxatricyclo [8.4.0.0,2,7]tetradeca-1,5,7,9-tetraen-8-yl}oxy)acetamido] benzamide] as the molecule, how does the enhancement of amplitude ([1]; 10 μM, treated two days after synchronization) read?
**A.** Its enhancement of amplitude is “more than 50%”.

**Q.** And the “period of circadian rhythm” value ([1]; U2OS-Bmal1::dLuc)?
**A.** The value was “no period changes”.

**Q.** What about the “amplitude of circadian rhythm” value ([1]; U2OS-Bmal1::dLuc, dose dependent) of the same molecule?
**A.** Its value is “enhances the amplitude”.

**Q.** And the “phase of the first trough after treatment” value ([1]; treated two days after synchronization, vs DMSO control)?
**A.** The value was “advanced the phase of the first trough”.

**Q.** And the “precipitated mutant CLOCK in the presence of the competitor” value [2]?
**A.** The value was “did not disappear”.
